{"source": "patent US3930838A", "about": "“S-benzyl-N,N-disec-butylthiocarbamate and its use as a rice field herbicide and a rice growth stimulant” (priority 1970, dated 1976)", "key": {"rice [1]": {"tested_on": "rice", "assay": "Further test on rice in submerged culture at high doses (Example 8)", "format": "in vivo", "conditions": "33 days", "procedure": "Into a set of cylindrical pots having a 200 cm^2 internal surface, sieved rice field earth in a quantity of 1 kg. per pot was introduced. After leveling and wetting with 200 cc. of water, the earth surface of the pots was uniformly sprayed with hydroacetone solutions containing, respectively, 0, 0.2, 0.3, and 0.4% active product (a.p.). 4 Ml. of the solution were sprayed onto each pot, so that the amount of active product in a set of four pots was 0, 4, 6, and 8 kg./ha., respectively. Immediately after spraying, each pot was filled with water to a level of 7 cm. over the soil surface. Thereafter, the sowing was carried out at the rate of 15 pre-germinated rice seeds per pot. Three repetitions were performed for each treatment. The pots were kept in an air-conditioned atmosphere with a daily temperature variation between 10° and 25°C and a 14 hour per day light period. After 24 days, the percentage of sprouted plants and the length of the shoot were recorded.\nIn view of the foregoing results, a further test was conducted according to the methodology of Example 7. During such test, M3432 was employed in quantities of 10, 20, and 30 kg./ha. The results were gathered 33 days after the treatments."}, "rice [2]": {"tested_on": "rice", "assay": "Rice seed surface treatment, pots, test No. 1 (Example 17)", "format": "in vivo, rice cv. RIBE", "conditions": "41 days", "procedure": "A set of glass pots was prepared as described in Example 7. Immediately after such preparation the pots were filled with water to a level of 7 cm. above the ground surface. Cv. RIBE rice seeds, which were previously allowed to swell in water, were divided into four groups. Each group was treated, by application with a micro syringe with a quantity of M3432 composition; containing 70% active product, corresponding to the following doses of a.p. per ha.: 0, 2.5, 5, and 10 kg. 15 seeds coated with the compound were placed into each pot and subsequently covered with a thin layer of earth. After 41 days, the following results were obtained."}}, "data": [{"smiles": "CCC(C)N(C(=O)SCc1ccccc1)C(C)CC", "note": "(stereo not drawn) [M3432, S-benzyl-N,N-disec.butylthiocarbamate]", "values": [{"measurement": "Main root", "setting": "rice [1]; 10 kg./ha.", "value": 11.3, "unit": "cm."}, {"measurement": "Secondary roots", "setting": "rice [1]; 10 kg./ha.", "value": 4.4, "unit": "number per plant"}, {"measurement": "Shoot", "setting": "rice [1]; 10 kg./ha.", "value": 19.97, "unit": "cm."}, {"measurement": "Sprouted plants", "setting": "rice [1]; 10 kg./ha.", "value": 71.1, "unit": "%"}, {"measurement": "Main root", "setting": "rice [1]; 20 kg./ha.", "value": 10.6, "unit": "cm."}, {"measurement": "Secondary roots", "setting": "rice [1]; 20 kg./ha.", "value": 5.1, "unit": "number per plant"}, {"measurement": "Shoot", "setting": "rice [1]; 20 kg./ha.", "value": 20.9, "unit": "cm."}, {"measurement": "Sprouted plants", "setting": "rice [1]; 20 kg./ha.", "value": 77.7, "unit": "%"}, {"measurement": "Main root", "setting": "rice [1]; 30 kg./ha.", "value": 11.1, "unit": "cm."}, {"measurement": "Secondary roots", "setting": "rice [1]; 30 kg./ha.", "value": 5.4, "unit": "number per plant"}, {"measurement": "Shoot", "setting": "rice [1]; 30 kg./ha.", "value": 23.4, "unit": "cm."}, {"measurement": "Sprouted plants", "setting": "rice [1]; 30 kg./ha.", "value": 80.0, "unit": "%"}, {"measurement": "Main root", "setting": "rice [2]; 2.5 kg./ha.", "value": 8.93, "unit": "cm."}, {"measurement": "Secondary roots", "setting": "rice [2]; 2.5 kg./ha.", "value": 3.90, "unit": "no."}, {"measurement": "Shoot", "setting": "rice [2]; 2.5 kg./ha.", "value": 17.16, "unit": "cm."}, {"measurement": "Stand", "setting": "rice [2]; 2.5 kg./ha.", "value": 68.80, "unit": "%"}, {"measurement": "Main root", "setting": "rice [2]; 5 kg./ha.", "value": 8.48, "unit": "cm."}, {"measurement": "Secondary roots", "setting": "rice [2]; 5 kg./ha.", "value": 4.02, "unit": "no."}, {"measurement": "Shoot", "setting": "rice [2]; 5 kg./ha.", "value": 16.83, "unit": "cm."}, {"measurement": "Stand", "setting": "rice [2]; 5 kg./ha.", "value": 62.20, "unit": "%"}, {"measurement": "Main root", "setting": "rice [2]; 10 kg./ha.", "value": 10.07, "unit": "cm."}, {"measurement": "Secondary roots", "setting": "rice [2]; 10 kg./ha.", "value": 4.23, "unit": "no."}, {"measurement": "Shoot", "setting": "rice [2]; 10 kg./ha.", "value": 16.92, "unit": "cm."}, {"measurement": "Stand", "setting": "rice [2]; 10 kg./ha.", "value": 62.20, "unit": "%"}]}]}
